Values of other authors as cited in patent publication US9227980B2, “Methods for the purification of cucurbituril” (CAMBRIDGE ENTERPRISE LIMITED, priority 2009, dated 2016).

solubility in water (qualitative) | Compound
soluble in water | O=C1N2CN3C(=O)N4CN5C(=O)N6CN7C(=O)N8CN9C(=O)N%10CN1C1C2N2CN%11C(=O)N(CN%12C(=O)N(CN%13C(=O)N(CN%14C(=O)N(CN1C2=O)C%10C9%14)C8C7%13)C6C5%12)C4C3%11 (centres unmarked) [CB[5]]
are not | O=C1N2CN3C(=O)N4CN5C(=O)N6CN7C(=O)N8CN9C(=O)N%10CN%11C(=O)N%12CN1C1C2N2CN%13C(=O)N(CN%14C(=O)N(CN%15C(=O)N(CN%16C(=O)N(CN%17C(=O)N(CN1C2=O)C%12C%11%17)C%10C9%16)C8C7%15)C6C5%14)C4C3%13 (centres unmarked) [CB[6]]
